Where “and” joins values, the source holds several entries; their conditions need not be identical. Equal entries are not always repeated. Toxic doses and inconclusive results are not listed.
Tested on: P388 leukemia ip, CD2F1 mice, survival T/C
Assay: NCI In Vivo Anticancer Drug Screen. Data for tumor model P388 Leukemia (intraperitoneal) in CD2F1 (CDF1) mice
Details: endpoint: median survival time, higher = longer survival
Summary of the method: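 Mice carrying the transplanted tumor received test compound or vehicle. Survival was recorded in each group, and the value is the treated-group measurement divided by that of the vehicle-treated control group.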

[1] = dose: 100.0 mg/kg/injection, schedule: Q01DX009 (ip), vehicle: Klucel (hydroxypropylcellulose) (HPC)
[2] = dose: 200.0 mg/kg/injection, schedule: Q01DX009 (ip), vehicle: Klucel (hydroxypropylcellulose) (HPC)
[3] = dose: 60.0 mg/kg/injection, schedule: Q01DX005 (ip), vehicle: saline with Tween-80
[4] = dose: 120.0 mg/kg/injection, schedule: Q01DX005 (ip), vehicle: saline with Tween-80
[5] = dose: 240.0 mg/kg/injection, schedule: Q01DX005 (ip), vehicle: saline with Tween-80
[6] = dose: 50.0 mg/kg/injection, schedule: Q01DX005 (ip), vehicle: saline
[7] = dose: 100.0 mg/kg/injection, schedule: Q01DX005 (ip), vehicle: saline

Cc1ccc(C2(Br)C(=O)c3ccccc3C2=O)cc1
T/C (dose: 100.0 mg/kg/injection, schedule: Q04DX002 (ip), vehicle: saline): 103 % of control | T/C (dose: 200.0 mg/kg/injection, schedule: Q04DX002 (ip), vehicle: saline): 102 % of control | T/C (dose: 400.0 mg/kg/injection, schedule: Q04DX002 (ip), vehicle: saline): 101 % of control

CCOc1ccc(N=Nc2ccc(N)cc2N)cc1
T/C [1]: 118 % of control | T/C [2]: 100 % of control | T/C (dose: 400.0 mg/kg/injection, schedule: Q01DX009 (ip), vehicle: Klucel (hydroxypropylcellulose) (HPC)): 93 % of control

Cc1c([N+](=O)[O-])/c(=N/O)c2c(=O)c([N+](=O)[O-])coc2n1O
T/C (dose: 50.0 mg/kg/injection, schedule: Q01DX009 (ip), vehicle: Klucel (hydroxypropylcellulose) (HPC)): 108 % of control | T/C [1]: 99 % of control | T/C [2]: 90 % of control

CN(C)c1ccc(/C=C/C(=O)c2ccc(Nc3ccnc4cc(Cl)ccc34)cc2)cc1
T/C (dose: 400.0 mg/kg/injection, schedule: Q04DX002 (ip), vehicle: saline with Tween-80): 93 % of control

NC(=S)NN=C1/C(=N\O)CCC/C1=N/O
T/C [3]: 97 % of control | T/C [4]: 97 % of control | T/C [5]: 97 % of control

C[N+](C)(C)/C=C/c1ccc([N+](=O)[O-])o1
T/C (dose: 50.0 mg/kg/injection, schedule: Q01DX009 (ip), vehicle: suspension in saline): 100 % of control | T/C (dose: 100.0 mg/kg/injection, schedule: Q01DX009 (ip), vehicle: suspension in saline): 96 % of control

Nc1[nH]n(-c2ccccc2)c(=O)c1C1c2ccccc2Sc2ccccc21
T/C [3]: 99 % of control | T/C [4]: 99 % of control | T/C [5]: 95 % of control

COc1cccc2c1C(=O)c1c(O)c(COC3CC(N)C(O)C(C)O3)cc(O)c1C2=O (stereo unspecified)
T/C (dose: 1.56 mg/kg/injection, schedule: Q04DX003 (ip), vehicle: water): 96 % of control | T/C (dose: 3.13 mg/kg/injection, schedule: Q04DX003 (ip), vehicle: water): 96 % of control | T/C (dose: 6.25 mg/kg/injection, schedule: Q04DX003 (ip), vehicle: water): 104 % of control | T/C (dose: 12.5 mg/kg/injection, schedule: Q04DX003 (ip), vehicle: water): 101 % of control | T/C (dose: 25.0 mg/kg/injection, schedule: Q04DX003 (ip), vehicle: water): 95 % of control

COc1cccc2c1C(=O)c1c(O)c3c(c(O)c1C2=O)C[C@@](O)(C(=O)CO)C[C@@H]3OC1CC(NC(=O)C(N)CC(C)C)C(O)C(C)O1 (stereo partly specified)
T/C (dose: 3.12 mg/kg/injection, schedule: Q04DX003 (ip), vehicle: saline): 105 % of control | T/C (dose: 6.25 mg/kg/injection, schedule: Q04DX003 (ip), vehicle: saline): 118 % of control | T/C (dose: 25.0 mg/kg/injection, schedule: Q04DX003 (ip), vehicle: saline): 150 % of control

c1ccc2c(c1)Cc1ccccc1N2CCN1CCCCC1
T/C [6]: 101 % of control | T/C [7]: 104 % of control

O=C(Nc1cccc(Cl)c1)OCC#CCCl
T/C (dose: 50.0 mg/kg/injection, schedule: Q01DX005 (ip), vehicle: saline + Tween-80 + alcohol): 100 % of control | T/C (dose: 100.0 mg/kg/injection, schedule: Q01DX005 (ip), vehicle: saline + Tween-80 + alcohol): 107 % of control | T/C (dose: 200.0 mg/kg/injection, schedule: Q01DX005 (ip), vehicle: saline + Tween-80 + alcohol): 108 % of control

CC(=O)c1c(-c2ccc(Cl)cc2)c(-c2ccc(Cl)cc2)nn(CCN)c1=O
T/C (dose: 12.5 mg/kg/injection, schedule: Q01DX005 (ip), vehicle: saline with Tween-80): 100 % of control | T/C (dose: 25.0 mg/kg/injection, schedule: Q01DX005 (ip), vehicle: saline with Tween-80): 98 % of control | T/C (dose: 50.0 mg/kg/injection, schedule: Q01DX005 (ip), vehicle: saline with Tween-80): 98 % of control and 95 % of control

COC1OC(CO)C(O)C(O)C1N1C(=O)c2ccccc2C1=O (stereo unspecified)
T/C (dose: 50.0 mg/kg/injection, schedule: Q01DX005 (ip), vehicle: Klucel (hydroxypropylcellulose) (HPC)): 100 % of control | T/C [6]: 97 % of control | T/C (dose: 100.0 mg/kg/injection, schedule: Q01DX005 (ip), vehicle: Klucel (hydroxypropylcellulose) (HPC)): 98 % of control | T/C [7]: 97 % of control | T/C (dose: 200.0 mg/kg/injection, schedule: Q01DX005 (ip), vehicle: Klucel (hydroxypropylcellulose) (HPC)): 97 % of control | T/C (dose: 200.0 mg/kg/injection, schedule: Q01DX005 (ip), vehicle: saline): 101 % of control

CC(C)(CO)CN1CCCCC1
T/C (dose: 50.0 mg/kg/injection, schedule: Q04DX003 (ip), vehicle: saline with Tween-80): 100 % of control | T/C (dose: 100.0 mg/kg/injection, schedule: Q04DX003 (ip), vehicle: saline with Tween-80): 100 % of control | T/C (dose: 200.0 mg/kg/injection, schedule: Q04DX003 (ip), vehicle: saline with Tween-80): 100 % of control

O=C(Nc1ccc(Cl)cc1)O/N=C/c1ccc2c(c1)OCO2
T/C (dose: 50.0 mg/kg/injection, schedule: Q01DX009 (ip), vehicle: saline with Tween-80): 93 % of control | T/C (dose: 100.0 mg/kg/injection, schedule: Q01DX009 (ip), vehicle: saline with Tween-80): 91 % of control | T/C (dose: 200.0 mg/kg/injection, schedule: Q01DX009 (ip), vehicle: saline with Tween-80): 86 % of control

From PubChem BioAssay AID330 (DTP/NCI, 2004)
